SMILES strings stand for the structures.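 Tested at 5 concentrations; 48 h exposure; 96-well plates; endpoints linearly interpolated, else capped at highest concentration. Abbreviation: GI50, concentration required for 50% inhibition of growth. TGI: total growth inhibition.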 Some results are limits rather than exact numbers.

This assay concerns MDA-MB-468 breast. In words: inhibition of tumour cell growth, NCI panel, 48 h.

On to `CC1(C)CC(=O)c2c(C(F)(F)F)nn(-c3ccc(C(N)=O)c(NC4CCC(OC(=O)CN)CC4)c3)c2C1` (centres undefined), for which the GI50 is 0.0243 µM and the TGI turned out to be 0.0683 µM. Taken in the same sequence, the figures for `Oc1cccc2ccc(N/N=C/c3cc(CN4CCCCC4)c(O)c4ncccc34)nc12` were 0.0401 µM and 0.533 µM. On the same counts, the results for `CN1CCC(n2cnc(-c3ccc(F)cc3)c2-c2ccnc(NCCO)n2)CC1` are 10 µM and over 25 µM. As to `Cc1ccc(-c2nc(C(Cl)Cl)nc3cc(-c4ccccc4)nn23)cc1`, the GI50 was 2.94 µM. Regarding `CC(C)C[C@H]1C(=O)O[C@H](C(C)C)C(=O)N(C)[C@@H](C(C)C)C(=O)O[C@H](C(C)C)C(=O)N(C)[C@@H](C(C)C)C(=O)O[C@H](C(C)C)C(=O)N1C`, the GI50 was 2.01 µM and the TGI is 9.35 µM. Taken in the same sequence, the figures for `Cn1cc(-c2ccc3occ(-c4cccc(-c5ccncc5)c4)c3n2)cn1` were 0.24 µM and 0.941 µM.

Take `CCCCC(CC)CN=C(N)NC(N)=NCCCCCCN=C(N)NC(N)=NCC(CC)CCCC` (centres undefined): the GI50 was 1.27 µM and the TGI came out at 2.73 µM. On the same counts, the results for `Cc1cc(N(CCCl)CCCl)ccc1C=Nc1ccc(-c2csc(Cc3ccccc3)n2)cc1` are 0.16 µM and 2.86 µM. Taken in the same sequence, the figures for `COc1ccc2nc(-c3ccc(-c4noc(-c5cc(OC)c(OC)c(OC)c5)n4)cc3)[nH]c2c1` were 6.54 µM and 26.3 µM.

For the compound `CC[C@@H](C(=O)O)C1CC[C@H](C)C([C@@H](C)[C@H](O)[C@H](C)C(=O)[C@H](CC)C2O[C@]3(C=C[C@@H](O)[C@]4(CC[C@@](C)(C5CC[C@](O)(CC)[C@H](C)O5)O4)O3)[C@H](C)C[C@@H]2C)O1` (some centres undefined), the GI50 is 0.292 µM and the TGI came out at 4.34 µM.

Regarding `COc1ccc(/C(=C2/O[C@@H]([C@H]3COC(C)(C)O3)[C@H]3OC(C)(C)O[C@@H]23)c2cc(OC)c(OC)c(OC)c2)cc1O`, the GI50 was 25.6 µM and the TGI turned out to be 63.6 µM. Taken in the same sequence, the figures for `N=C(N)c1ccc(-c2ccc(-c3cc(Cl)cc(Cl)c3)o2)nc1` were 1.69 µM and 3.29 µM. In the case of `O=C(O)/C=C\C(=O)N1C/C(=C\c2ccccc2Cl)C(=O)/C(=C/c2ccccc2Cl)C1`, the GI50 was 1.54 µM and the TGI turned out to be 3.46 µM. On the same counts, the results for `COc1cc(/C=C/c2cc(O)c3cc(C(C)=O)c(=O)oc3c2)cc2c1O[C@]1(C)CC[C@@H](O)C(C)(C)[C@H]1C2` are 3.87 µM and 20.5 µM. For the compound `Nc1nc2c(c3ncncc13)C(c1cccc(C(F)(F)F)c1)Cc1ncncc1-2` (centres undefined), the GI50 was 2.78 µM and the TGI was determined as 8.89 µM. On the same counts, the results for `CC1SC(c2ccccc2)N(CCc2cccs2)C1=O` (centres undefined) are 2.43 µM and 8.42 µM. Turning to `O=C(CCCCCCC(=O)Nc1ccc(N(CCCl)CCCl)cc1)NO`, the GI50 is 0.232 µM and the TGI worked out at 1.11 µM. On the same counts, the results for `COc1cc2c(c(OC)c1)C1c3ccccc3NC(=O)N1CC2` (centres undefined) are 2.55 µM and 8.57 µM. Taken in the same sequence, the figures for `NCCOCCOCCNc1nc(Cc2ccccc2)nc(NCCCN2CCCC2=O)n1` were over 100 µM and over 100 µM. For the compound `CN(C)CC(=O)Nc1ccc(Cn2nnc3c2C(=O)c2nnn(Cc4ccc(NC(=O)CN(C)C)cc4)c2C3=O)cc1`, the GI50 was 0.104 µM and the TGI came to 0.258 µM. Taken in the same sequence, the figures for `COc1cccc(-n2ncc3c(N/N=C/c4ccc(C(=O)NCCN(C)C)cc4)ncnc32)c1` were 0.853 µM and 5.16 µM. As to `OC1CCN(CCCOc2c3ccc(Cl)cc3nc3c2oc2ccc(Cl)cc23)CC1`, the GI50 is 1.82 µM and the TGI came to 7.88 µM.

`COc1ccc(-c2csc(N(C(=O)N3CCN(c4cc5c(cc4F)c(=O)c(C(=O)O)cn5C4CC4)CC3)c3ccccc3)n2)cc1`: the GI50 is 2.55 µM and the TGI is 8.74 µM. On to `O=c1cc(-c2ccccc2)[nH]c2ccccc12`, for which the GI50 was 0.481 µM. As for `CC(C)c1cc(-c2n[nH]c(=O)n2-c2ccc3c(ccn3C)c2)c(O)cc1O`, the GI50 is under 0.0143 µM and the TGI stood at 0.327 µM. On the same counts, the results for `O=C1c2cccnc2C(=O)c2nc3cc(N4CCN(C5CC5)CC4)ccc3nc21` are 1.68 µM and 4.03 µM.

As for `OC(c1cc(-c2ccccc2)nc2ccc(Cl)cc12)C1CCCCN1` (centres undefined), the GI50 was 2.01 µM and the TGI turned out to be 3.86 µM. As to `CCN(CC)CC(C)Nc1ccc([N+](=O)[O-])c2sc3ccccc3c(=O)c12` (centres undefined), the GI50 is 1.81 µM and the TGI came out at 5.79 µM. On to `COc1ccc(-c2n/c(=C\c3c(O)[nH]c4ccc(OC)cc34)cc3c2=Nc2ccccc2-3)cc1`, for which the GI50 is 1.56 µM and the TGI turned out to be 3.46 µM. As to `COc1cccc2c1c(C(=O)C(=O)Nc1cc(C)no1)cn2Cc1ccc(F)cc1`, the GI50 is 2.42 µM and the TGI was 17.7 µM.

Take `COc1ccc(/C=C2\CCCC3=C2N=C2SC(C)=NN2C3c2ccc(OC)c(OC)c2)cc1OC` (centres undefined): the GI50 was 2.61 µM and the TGI was 9.09 µM. As to `COc1ccc(-c2c3c(N)nc(-c4ccncc4)nc3nc3c2c(C)nn3-c2ccccc2)cc1`, the GI50 was 7.75 µM and the TGI is over 100 µM. For the compound `COC(=O)[C@@]1(C)CC[C@]2(C)CC[C@]3(C)C4=CC=C5C(=CC(=O)C(O)=C5C)[C@]4(C)[C@@H](O)C[C@@]3(C)[C@@H]2C1`, the GI50 was 9.71 µM and the TGI is 21.9 µM. Taken in the same sequence, the figures for `CCc1nccc2c1nc(-c1nonc1N)n2CC` were over 25 µM and over 25 µM. On the same counts, the results for `COc1cc(C2CC(c3ccc4c(c3)OCO4)=NN2C=O)cc(OC)c1OC` (centres undefined) are 2.05 µM and 6.81 µM. On the same counts, the results for `CCCC(C)c1cc(Cc2cc(Cl)cc(Cl)c2O)c(O)c(Cc2cc(Cl)cc(Cl)c2O)c1` (centres undefined) are 0.393 µM and 5.07 µM. In the case of `CC#C[C@]1(O)CC[C@H]2[C@@H]3CCC4=CC(=O)CCC4=C3[C@@H](c3ccc4c(c3)OCO4)C[C@@]21C`, the GI50 was 101 µM and the TGI is 559 µM.

As to `O=C(NCCO)Nc1ccc(-c2nc(N3CCOCC3)c3cccn3n2)cc1`, the GI50 is 0.0889 µM and the TGI was 2.35 µM.

As to `COc1ccc2sc3c(NCCCN(C)C)nc4ccccc4c3c(=O)c2c1`, the GI50 is 1.62 µM and the TGI is 3.21 µM.

Take `COC(=O)[C@H](C[C@H](Cc1ccccc1)NC(=O)c1csc([C@@H](C[C@H](C(C)C)N(C)C(=O)[C@@H](NC(=O)[C@H]2CCCCN2C)C(C)C)OC(C)=O)n1)NC(=O)OCc1ccccc1`: the GI50 was under 0.0009 µM and the TGI was under 0.0009 µM.

`Cc1ccccc1[P+](Cc1ccccc1)(c1ccccc1)c1ccccc1`: the GI50 is 0.367 µM and the TGI turned out to be 4 µM.

As for `COc1ccc2c(c1)cn1c3ccc(O)cc3nc(N)c21`, the GI50 is 0.747 µM and the TGI was found to be 4.73 µM. With `C=CCOc1cccc(/C=C2\SC(=Nc3ccc(O)cc3)NC2=O)c1`, the GI50 is 0.416 µM and the TGI was found to be 4.17 µM.

The values above are taken from PubChem BioAssay (NCI).
